According to patent US10023544B2, “Heterocyclic compound” (Takeda Pharmaceutical Company Limited, priority 2014, dated 2018):
Counter-ions that a name gives are not always drawn.

Target: T1, Human recombinant enteropeptidase (Homo sapiens, UniProt P98073)
T1 construct: purchased ITSI-Biosciences, LLC #REN-260
Assay: Human enteropeptidase inhibitory activity
Format: biochemical
Conditions: 3.3 uM test compound, fluorescence intensity 2 hours after start of reaction; for inhibition at 3.3 µM: read-out: Inhibition rate at 3.3 uM (%)
Description: Human recombinant enteropeptidase (#REN-260, ITSI-Biosciences, LLC) was diluted with an assay buffer (50 mM Tricine (pH 8.0), 0.01 (w/v) % Tween 20, 10 mM CaCl2) to prepare a 24 mU/mL enzyme solution. Subsequently, 5FAM-Abu-Gly-Asp-Asp-Asp-Lys-Ile-Val-Gly-Gly-Lys(CPQ2)-Lys-Lys-NH2 (purity: 97.2%, CPC Scientific, Inc.) produced according to a synthesis method known per se was diluted with an assay buffer to prepare a 2.1 uM (“u” represents “micro”) substrate solution. Each test compound was dissolved in DMSO to prepare a 1 mM solution, which was then diluted 100-fold with an assay buffer to prepare a compound solution. The compound solution (5 uL/well) and the substrate solution (5 uL/well) were added to a 384-well black plate (#784076, Greiner Bio-One) and mixed. Then, the enzyme solution (5 uL/well) was added to the plate and mixed to start reaction. The fluorescence intensity was measured at an excitation wavelength of 485 nm and a fluorescence wavelength of 535 nm using a fluorescence plate reader EnVision (PerkinElmer Inc.). Also, the same reaction as above was performed except that the test compound was not added (test compound non-supplemented group). In addition, the same reaction as above was performed except that neither the test compound nor the enzyme was added (control group). The inhibition rate was calculated from the fluorescence intensity 2 hours after the start of the reaction according to the following equation: Inhibition rate (%)=(1−(Fluorescence intensity of the test compound supplemented group−Fluorescence intensity of the control group)/(Fluorescence intensity of the test compound non-supplemented group−Fluorescence intensity of the control group))×100

T1 sequence (P98073 whole entry): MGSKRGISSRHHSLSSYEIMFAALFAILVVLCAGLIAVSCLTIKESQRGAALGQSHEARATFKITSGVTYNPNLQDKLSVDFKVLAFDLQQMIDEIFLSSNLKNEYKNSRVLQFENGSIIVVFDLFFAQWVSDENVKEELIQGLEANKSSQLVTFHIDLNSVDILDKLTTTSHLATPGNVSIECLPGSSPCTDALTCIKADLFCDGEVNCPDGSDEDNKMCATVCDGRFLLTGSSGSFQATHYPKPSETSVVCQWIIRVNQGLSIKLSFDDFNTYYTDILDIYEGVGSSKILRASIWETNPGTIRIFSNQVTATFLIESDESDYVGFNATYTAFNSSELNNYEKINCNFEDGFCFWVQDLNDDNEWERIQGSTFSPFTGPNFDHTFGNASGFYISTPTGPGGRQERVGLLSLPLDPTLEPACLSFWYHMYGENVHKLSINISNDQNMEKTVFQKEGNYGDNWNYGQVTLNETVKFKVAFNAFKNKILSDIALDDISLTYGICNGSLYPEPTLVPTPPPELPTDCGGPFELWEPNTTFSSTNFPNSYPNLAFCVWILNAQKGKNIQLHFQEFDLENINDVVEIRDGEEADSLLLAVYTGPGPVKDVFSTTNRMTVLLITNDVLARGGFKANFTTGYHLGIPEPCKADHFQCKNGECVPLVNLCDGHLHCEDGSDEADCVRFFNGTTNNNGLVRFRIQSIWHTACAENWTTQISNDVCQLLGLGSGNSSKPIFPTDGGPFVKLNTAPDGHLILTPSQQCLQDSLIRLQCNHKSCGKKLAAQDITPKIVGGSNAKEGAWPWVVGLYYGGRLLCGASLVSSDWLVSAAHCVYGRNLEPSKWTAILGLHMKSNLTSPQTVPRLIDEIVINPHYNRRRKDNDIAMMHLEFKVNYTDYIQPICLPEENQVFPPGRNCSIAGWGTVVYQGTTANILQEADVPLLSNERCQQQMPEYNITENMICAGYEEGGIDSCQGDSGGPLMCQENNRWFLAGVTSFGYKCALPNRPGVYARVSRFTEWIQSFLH

inhibition at 3.3 µM | Inhibition rate at 3.3 uM (%) (3.3 µM) | Compound
100% | – | CN(CC(=O)O)C(=O)CCc1ccc(OC(=O)c2ccc(NC(=N)N)cc2)cc1C1=NOC(CC(=O)O)(CC(=O)O)C1 [Example 31, N-(3-(2-(5,5-bis(carboxymethyl)-4,5-dihydro-1,2-oxazol-3-yl)-4-((4-carbamimidamidobenzoyl)oxy)phenyl)propanoyl)-N-methylglycine]
100% | – | N=C(N)Nc1ccc(C(=O)Oc2ccc(CCC(=O)N[C@@H](CCC(N)=O)C(=O)O)c(C3=NOC(CC(=O)O)(CC(=O)O)C3)c2)cc1 [Example 29, N^2-(3-(2-(5,5-bis(carboxymethyl)-4,5-dihydro-1,2-oxazol-3-yl)-4-((4-carbamimidamidobenzoyl)oxy)phenyl)propanoyl)-L-glutamine]
100% | – | N=C(N)Nc1ccc(C(=O)Oc2ccc(CCC(=O)N[C@@H](CC(N)=O)C(=O)O)c(C3=NOC(CC(=O)O)(CC(=O)O)C3)c2)cc1 [Example 28, N^2-(3-(2-(5,5-bis(carboxymethyl)-4,5-dihydro-1,2-oxazol-3-yl)-4-((4-carbamimidamidobenzoyl)oxy)phenyl)propanoyl)-L-asparagine]
100% | – | N=C(N)Nc1ccc(C(=O)Oc2ccc(CCC(=O)N3CCOCC3)c(C3=NOC(CC(=O)O)(CC(=O)O)C3)c2)cc1 [Example 26, 2,2′-(3-(5-((4-carbamimidamidobenzoyl)oxy)-2-(3-(morpholin-4-yl)-3-oxopropyl)phenyl)-4,5-dihydro-1,2-oxazole-5,5-diyl) diacetic acid]
100% | – | CS(=O)(=O)CCNC(=O)CCc1ccc(OC(=O)c2ccc(NC(=N)N)cc2)cc1C1=NOC(CC(=O)O)(CC(=O)O)C1 [Example 27, 2,2′-(3-(5-((4-carbamimidamidobenzoyl)oxy)-2-(3-((2-(methylsulfonyl)ethyl)amino)-3-oxopropyl)phenyl)-4,5-dihydro-1,2-oxazole-5,5-diyl)diacetic acid]
101% | – | N=C(N)Nc1ccc(C(=O)Oc2ccc(CCC(=O)NCCS(=O)(=O)O)c(C3=NOC(CC(=O)O)(CC(=O)O)C3)c2)cc1 [Example 34, 2,2′-(3-(5-((4-Carbamimidamidobenzoyl)oxy)-2-(3-oxo-3-((2-sulfoethyl)amino)propyl)phenyl)-4,5-dihydro-1,2-oxazole-5,5-diyl)diacetic acid]
100% | – | N=C(N)Nc1ccc(C(=O)Oc2ccc(CCC(=O)NCCC(=O)O)c(C3=NOC(CC(=O)O)(CC(=O)O)C3)c2)cc1 [Example 32, N-(3-(2-(5,5-bis(carboxymethyl)-4,5-dihydro-1,2-oxazol-3-yl)-4-((4-carbamimidamidobenzoyl)oxy)phenyl)propanoyl)-beta-alanine]
100% | – | N=C(N)Nc1ccc(C(=O)Oc2ccc(CCC(=O)O)c(C3=NOC(CC(=O)O)(CC(=O)O)C3)c2)cc1 [Example 24, 3-(2-(5,5-bis(carboxymethyl)-4,5-dihydro-1,2-oxazol-3-yl)-4-((4-carbamimidamidobenzoyl)oxy)phenyl)propanoic acid]
100% | – | N=C(N)Nc1ccc(C(=O)Oc2ccc(CCC(=O)N[C@@H](CC(=O)O)C(=O)O)c(C3=NOC(CC(=O)O)(CC(=O)O)C3)c2)cc1 [Example 20, N-(3-(2-(5,5-bis(carboxymethyl)-4,5-dihydro-1,2-oxazol-3-yl)-4-((4-carbamimidamidobenzoyl)oxy)phenyl)propanoyl)-L-aspartic acid]

The next lines start with the compound.

Compound | inhibition at 3.3 µM | Inhibition rate at 3.3 uM (%) (3.3 µM)
N=C(N)Nc1ccc(C(=O)Oc2ccc(CCC(=O)O)c(C3=NOC(CC(=O)O)(C(=O)O)C3)c2)cc1 (stereo not drawn) [Example 15, 3-(5-((4-carbamimidamidobenzoyl)oxy)-2-(2-carboxyethyl)phenyl)-5-(carboxymethyl)-4,5-dihydro-1,2-oxazole-5-carboxylic acid] | 101% | –
Cc1ccc(C2=NOC(CC(=O)O)(C(=O)O)C2)cc1OC(=O)c1ccc(NC(=N)N)cc1 (stereo not drawn) [Example 17, 3-(3-((4-carbamimidamidobenzoyl)oxy)-4-methylphenyl)-5-(carboxymethyl)-4,5-dihydro-1,2-oxazole-5-carboxylic acid] | 87% | –
Cc1c(OC(=O)c2ccc(NC(=N)N)cc2)cccc1C1=NOC(CC(=O)O)(C(=O)O)C1 (stereo not drawn) [Example 16, 3-(3-((4-carbamimidamidobenzoyl)oxy)-2-methylphenyl)-5-(carboxymethyl)-4,5-dihydro-1,2-oxazole-5-carboxylic acid] | 100% | –
N=C(N)Nc1ccc(C(=O)Oc2cccc(C3=NOC(CC(=O)O)(CC(=O)O)C3)c2)cc1 [Example 6, 2,2′-(3-(3-((4-Carbamimidamidobenzoyl)oxy)phenyl)-4,5-dihydro-1,2-oxazole-5,5-diyl)diacetic acid] | 100% | –
CC(C)(C)C1CCC(c2cc(OC(=O)c3ccc(NC(=N)N)cc3)cc(C3=NOC(CC(=O)O)(C(=O)O)C3)c2)CC1 (stereo not drawn) [Example 13, 3-(3-(4-tert-butylcyclohexyl)-5-((4-carbamimidamidobenzoyl)oxy)phenyl)-5-(carboxymethyl)-4,5-dihydro-1,2-oxazole-5-carboxylic acid (cis or trans form)] | – | 100%
N=C(N)Nc1ccc(C(=O)Oc2ccc(-c3ccccc3)c(C3=NOC(CC(=O)O)(C(=O)O)C3)c2)cc1 (stereo not drawn) [Example 9, 3-(4-((4-carbamimidamidobenzoyl)oxy)biphenyl-2-yl)-5-(carboxymethyl)-4,5-dihydro-1,2-oxazole-5-carboxylic acid] | 101% | –
CC(C)(C)C1CCC(c2ccc(OC(=O)c3ccc(NC(=N)N)cc3)cc2C2=NOC(CC(=O)O)(C(=O)O)C2)CC1 (stereo not drawn) [Example 10, 3-(2-(4-tert-butylcyclohexyl)-5-((4-carbamimidamidobenzoyl)oxy)phenyl)-5-(carboxymethyl)-4,5-dihydro-1,2-oxazole-5-carboxylic acid] | 101% | –
N=C(N)Nc1ccc(C(=O)Oc2ccc(C3=NOC(CC(=O)O)(C(=O)O)C3)cc2)cc1 (stereo not drawn) [Example 2, 3-(4-((4-carba-mimidamidobenzoyl)oxy)phenyl)-5-(carboxymethyl)-4,5-dihydro-1,2-oxazole-5-carboxylic acid] | 101% | –
N=C(N)Nc1ccc(C(=O)Oc2cccc(C3=NOC(CCC(=O)O)(CCC(=O)O)C3)c2)cc1 [Example 4, 3,3′-(3-(3-((4-carba-mimidamidobenzoyl)oxy)phenyl)-4,5-dihydro-1,2-oxazole-5,5-diyl)dipropanoic acid] | 101% | –
N=C(N)Nc1ccc(C(=O)Oc2ccc(C3CCN(C(=O)CCC(=O)O)CC3)c(C3=NOC(CC(=O)O)(CC(=O)O)C3)c2)cc1 [Example 7, 4-(4-(2-(5,5-Bis(carboxymethyl)-4,5-dihydro-1,2-oxazol-3-yl)-4-((4-carbamimidamidobenzoyl)oxy)phenyl)piperidin-1-yl)-4-oxobutanoic acid trifluoroacetate] | 101% | –
N=C(N)Nc1ccc(C(=O)Oc2ccc(C3CCCCC3)c(C3=NOC(CC(=O)O)(C(=O)O)C3)c2)cc1 (stereo not drawn) [Example 8, 3-(5-((4-Carbamimidamidobenzoyl)oxy)-2-cyclohexylphenyl)-5-(carboxymethyl)-4,5-dihydro-1,2-oxazole-5-carboxylic acid trifluoroacetate] | 101% | –
N=C(N)Nc1ccc(C(=O)Oc2ccc(CCC(=O)N[C@@H](CC(=O)O)C(=O)O)c(C3=NOC(CC(=O)O)(C(=O)O)C3)c2)cc1 (stereo partly drawn) [Example 18, N-(3-(4-((4-Carbamimidamidobenzoyl)oxy)-2-(5-carboxy-5-(carboxymethyl)-4,5-dihydro-1,2-oxazol-3-yl)phenyl)propanoyl)-L-aspartic acid trifluoroacetate] | 100% | –
